Here are results for 1 compound from paper PMC11061149, “Protein mimetic 2D FAST rescues alpha synuclein aggregation mediated early and post disease Parkinson’s phenotypes” (Nature Communications, 2024).

Experiment [1] has as its system HEK cells stably expressing αS-A53T-YFP. The experiment in a line: HEK cells treated with 5th cycle PMCA samples (ProteoStat, confocal). In kind it is cell-based, human. On the procedure: To further validate that NS132 generates fiber incompetent structures from the fibers-catalyzed aggregation, we utilized HEK cells that stably express αS-A53T-YFP[24],[51]–[54]. The solutions of αS aggregation in the absence and presence of NS132 from the 5th cycle of PMCA (2 μM in monomeric αS, ±NS132) were introduced to the HEK cells in the presence of Lipofectamine 3000 for 24 h. In contrast to the control (no fibers) (Fig. 3i, control), we observed a significant number of inclusions of αS-A53T-YFP protein in the presence of αS fibers (Fig. 3i, αS, white arrows). […] In contrast, in the presence of the PMCA assay sample from the 5th cycle ( + NS132), there was a significant reduction in the number of αS-A53T-YFP inclusions (Fig. 3i, +NS132). The ProteoStat intensity of inclusions in HEK cells treated with the PMCA sample from cycle five was ~2–3 fold higher than the control condition (no fibers) (Fig. 3j, black). […]
This assay was performed based on a previous protocol with slight modifications. […] The resulting cell pellets were then homogenized, transferred into an autoclaved 1.7 mL microcentrifuge tube, and counted to normalize the data. […] The cell solution was homogenized and equally aliquoted into the desired number of wells in a Costar 96-well flat black plate and fluorescence was measured (λex = 550 nm, λem = 600 nm) on an Infinite M200 Pro Plate Reader. […]

Another experiment has as its target T1, αS fibers (PMCA) (Homo sapiens, UniProt P37840).
T1 construct: made in house; host or cells: E. coli BL21(DE3)
The experiment in a line: Protein misfolding cyclic amplification assay (PMCA), ThT readout. The experiment is classed as biochemical. As to the method: The PMCA assay was performed according to a previously described protocol. Briefly, an αS solution (100 µM) was prepared in PBS and 60 µL of the solution was placed in a 200 µL Polymerase Chain Reaction (PCR) tube and the mixture was subjected to five 24 h cycles of 1 min shaking (1200 rpm) and 29 min incubation at 37 °C. Every 24 h, 1 µL of αS solution was passaged to seed 60 µL of fresh soluble monomeric αS solution. The seeding cycle was repeated for five days, after which the ThT signal was measured for all five passages. For the preparation of PMCA samples of αS in the presence of NS132, a molar ratio of 1:1 (αS:NS132) was maintained. All experiments were performed in triplicate. The reported ThT intensity values are the average of three separate experiments with the error bars representing the standard deviations.

“And” between values parts separate entries of the source, which are not always exact repeats. Equal values may be shown once.

For `Cc1ccc(NC(=O)c2ccc(NC(=O)c3ccc([N+](=O)[O-])c(NCCc4c[nH]c5ccccc45)n3)c(NCC3CCCCC3)n2)c(OCC(=O)O)n1` [NS132], the “ProteoStat dye intensity (raw), individual experiments” value in experiment [1] (HEK cells + fifth cycle PMCA sample (2 μM αS in monomer) with NS132) was 1001 and 1176 and 997 and 1009 and 1031 and 978 and 1091 and 1123 and 1010 and 1092 and 1179. Besides, the “ProteoStat intensity of inclusions, in words” value in experiment [1] (PMCA sample from cycle five in the presence of NS132) is recorded as “significantly lower”. Besides, the “ThT intensity of PMCA sample, individual trials” value at αS fibers (PMCA) (Cycle 1, αS:NS132 1:1, before PK treatment) is 58 and 56 and 50; on αS fibers (PMCA) (Cycle 2, αS:NS132 1:1) it was 63 and 49 and 51; at αS fibers (PMCA) (Cycle 3, αS:NS132 1:1), 57 and 62 and 53; on αS fibers (PMCA) (Cycle 4, αS:NS132 1:1), 60 and 48 and 64; at αS fibers (PMCA) (Cycle 5, αS:NS132 1:1), 86 and 68 and 66. In addition, the “change in ThT intensity of PMCA samples, in words” value at αS fibers (PMCA) (equimolar ratio, up to cycle five) is given as “did not observe any significant change”.
